# From US5824771A, “Cyclic CRF agonists” (The Salk Institute for Biological Studies, priority 1997, dated 1998)
# Where two headings read alike, the source gives them in different places. Bridge positions count the residues as written; N and C are the ends. Square brackets hold non-standard residues; d marks the D form. Peptide text beside a SMILES is read from it. Nle = CCCC[C@H](N)C(=O)O
# Tested on: rat anterior pituitary cells
# Assay: In vitro stimulation of ACTH and β-endorphin secretion by cultured rat pituitary cells, potency compared with oCRF (Standard) or r/hCRF
# Format: cell-based
# Conditions: for in vitro biopotency, comparison in words: compared with the Standard or with a named analog
# Procedure: The cyclic CRF agonists are examined for their effects on the secretion of ACTH and β-endorphin in vitro and also in vivo. […] In vivo testing is carried out using the general procedure set forth in C. Rivier et al., Science, 218, 377 (1982).
# [1] = relative to the laboratory Standard (synthetic oCRF), cultured rat pituitary cells, limits in parentheses
structure (smiles),measurement,setting,value
"CC[C@H](C)[C@H](NC(=O)[C@@H]1CCCN1C(=O)[C@@H]1CCCN1C(C)=O)C(=O)N[C@@H](CO)C(=O)N[C@@H](CC(C)C)C(=O)N[C@@H](CC(=O)O)C(=O)N[C@@H](CC(C)C)C(=O)N[C@H](C(=O)N[C@H](Cc1ccccc1)C(=O)N[C@@H](Cc1c[nH]cn1)C(=O)N[C@@H](CC(C)C)C(=O)N[C@@H](CC(C)C)C(=O)N[C@@H](CCCNC(=N)N)C(=O)N[C@@H](CCC(=O)O)C(=O)N[C@@H](CCSC)C(=O)N[C@@H](CC(C)C)C(=O)N[C@@H](CCC(=O)O)C(=O)N[C@@H](CCSC)C(=O)N[C@@H](C)C(=O)N[C@@H](CCCCN)C(=O)N[C@@H](C)C(=O)N[C@@H](CCC(=O)O)C(=O)N[C@@H](CCC(N)=O)C(=O)N[C@@H](CCC(=O)O)C(=O)N[C@@H](C)C(=O)N[C@@H](CCC(=O)O)C(=O)N[C@H]1CCC(=O)NCCCC[C@@H](C(=O)N[C@@H](CC(N)=O)C(=O)N[C@@H](CCCNC(=N)N)C(=O)N[C@@H](CC(C)C)C(=O)N[C@@H](CC(C)C)C(=O)N[C@@H](CC(C)C)C(=O)N[C@@H](CCC(=O)O)C(=O)N[C@@H](CCC(=O)O)C(=O)N[C@@H](C)C(N)=O)NC(=O)[C@H](C)NC(=O)[C@H](C)NC1=O)[C@@H](C)O [(cyclo 30-33)[Ac-Pro^4, D-Phe^12, Glu^30, Lys^33]-AHC(4-41)] (Ac-PPISLDLT[dF]HLLREMLEMAKAEQEAEEAAKNRLLLEEA-NH2; lactam 27-30)",in vitro potency to stimulate secretion of ACTH relative to the Standard,[1],about 7.5 times
CCCC[C@H](NC(=O)[C@H](CCC(=O)O)NC(=O)[C@@H](NC(=O)[C@H](CCCC)NC(=O)[C@H](CC(N)=O)NC(=O)[C@H](CCCNC(=N)N)NC(=O)[C@H](CC(C)C)NC(=O)[C@H](CC(C)C)NC(=O)[C@H](Cc1c[nH]cn1)NC(=O)[C@@H](Cc1ccccc1)NC(=O)[C@@H](NC(=O)[C@H](CC(C)C)NC(=O)[C@H](CC(=O)O)NC(=O)[C@@H](NC(=O)[C@H](CO)NC(=O)[C@@H](NC(=O)[C@H]1CCCN1C(=O)[C@@H]1CCCN1C(C)=O)[C@@H](C)CC)[C@@H](C)CC)[C@@H](C)O)[C@@H](C)CC)C(=O)N[C@@H](C)C(=O)N[C@@H](CCCNC(=N)N)C(=O)N[C@@H](CC(N)=O)C(=O)N[C@@H](CCC(=O)O)C(=O)N[C@@H](CC(N)=O)C(=O)N[C@@H](CCC(N)=O)C(=O)N[C@@H](CCCNC(=N)N)C(=O)N[C@@H](CCC(=O)O)C(=O)N[C@H]1CCC(=O)NCCCC[C@@H](C(=O)N[C@@H](CC(N)=O)C(=O)N[C@@H](CCCNC(=N)N)C(=O)N[C@@H](CCCCN)C(=O)N[C@@H](Cc2ccc(O)cc2)C(=O)N[C@@H](CC(C)C)C(=O)N[C@@H](CC(=O)O)C(=O)N[C@@H](CCC(=O)O)C(=O)N[C@H](C(N)=O)C(C)C)NC(=O)[C@@H](C)NC(=O)[C@H](C)NC1=O [Example 8 A D-Ala^32 analog] (Ac-P[dP]ISIDLT[dF]HLLRN[Nle]IE[Nle]ARNENQREEA[dA]KNRKYLDEV-NH2; lactam 27-30),in vitro potency to stimulate secretion of ACTH relative to the Standard,,about 4.9 times
CCCC[C@H](NC(=O)[C@H](CCCCN)NC(=O)[C@H](CCCNC(=N)N)NC(=O)[C@H](CC(C)C)NC(=O)[C@H](CC(C)C)NC(=O)[C@H](CCC(=O)O)NC(=O)[C@@H](CC(C)C)NC(=O)[C@H](CO)NC(=O)[C@H](CC(C)C)NC(=O)[C@H](CC(=O)O)NC(=O)[C@@H](NC(=O)[C@H](CO)NC(=O)[C@@H](NC(=O)[C@H]1CCCN1C(=O)[C@@H]1CCCN1C(C)=O)[C@@H](C)CC)[C@@H](C)CC)C(=O)N[C@H](C(=O)N[C@@H](CCC(=O)O)C(=O)N[C@H](C(=O)N[C@@H](CCC(=O)O)C(=O)N[C@@H](CCCCN)C(=O)N[C@@H](CCC(N)=O)C(=O)N[C@@H](CCC(=O)O)C(=O)N[C@@H](CCCCN)C(=O)N[C@@H](CCC(=O)O)C(=O)N[C@@H](CCCCN)C(=O)N[C@@H](CCC(N)=O)C(=O)N[C@H]1CCC(=O)NCCCC[C@@H](C(=O)N[C@@H](CC(N)=O)C(=O)N[C@@H](CCCNC(=N)N)C(=O)N[C@@H](CC(C)C)C(=O)N[C@@H](CC(C)C)C(=O)N[C@@H](CC(C)C)C(=O)N[C@@H](CC(=O)O)C(=O)N[C@H](C(=O)N[C@H](C(N)=O)[C@@H](C)CC)[C@@H](C)O)NC(=O)[C@@H](C)NC(=O)[C@H](C)NC1=O)[C@@H](C)CC)[C@@H](C)CC [Example 8 B D-Ala^31 analog] (Ac-P[dP]ISIDLS[dL]ELLRK[Nle]IEIEKQEKEKQEA[dA]KNRLLLDTI-NH2; lactam 27-30),in vitro potency to stimulate secretion of ACTH relative to the Standard,[1],about 2 times
CCCC[C@H](NC(=O)[C@H](CCC(=O)O)NC(=O)[C@H](CC(C)C)NC(=O)[C@H](CCCC)NC(=O)[C@H](CCC(=O)O)NC(=O)[C@H](CCCNC(=N)N)NC(=O)[C@H](CC(C)C)NC(=O)[C@H](CC(C)C)NC(=O)[C@H](Cc1c[nH]cn1)NC(=O)[C@@H](Cc1ccccc1)NC(=O)[C@@H](NC(=O)[C@H](CC(C)C)NC(=O)[C@H](CC(=O)O)NC(=O)[C@H](CC(C)C)NC(=O)[C@H](CO)NC(=O)[C@@H](NC(=O)[C@H]1CCCN1C(=O)[C@@H]1CCCN1C(C)=O)[C@@H](C)CC)[C@@H](C)O)C(=O)N[C@@H](C)C(=O)N[C@@H](CCCCN)C(=O)N[C@@H](C)C(=O)N[C@@H](CCC(=O)O)C(=O)N[C@@H](CCC(N)=O)C(=O)N[C@@H](CCC(=O)O)C(=O)N[C@@H](C)C(=O)N[C@@H](CCC(=O)O)C(=O)N[C@H]1CCC(=O)NCCCC[C@@H](C(=O)N[C@@H](CC(N)=O)C(=O)N[C@@H](CCCNC(=N)N)C(=O)N[C@@H](CC(C)C)C(=O)N[C@@H](CC(C)C)C(=O)N[C@@H](CC(C)C)C(=O)N[C@@H](CCC(=O)O)C(=O)N[C@@H](CCC(=O)O)C(=O)N[C@@H](C)C(N)=O)NC(=O)[C@@H](C)NC(=O)[C@H](C)NC1=O [Example 8 C D-Ala^32 analog] (Ac-P[dP]ISLDLT[dF]HLLRE[Nle]LE[Nle]AKAEQEAEEA[dA]KNRLLLEEA-NH2; lactam 27-30),in vitro potency to stimulate secretion of ACTH relative to the Standard,,about 6.35 times
CCCC[C@H](NC(=O)[C@H](CCC(=O)O)NC(=O)[C@H](CC(C)C)NC(=O)[C@H](CCCC)NC(=O)[C@H](CCC(=O)O)NC(=O)[C@H](CCCNC(=N)N)NC(=O)[C@H](CC(C)C)NC(=O)[C@H](CC(C)C)NC(=O)[C@H](Cc1c[nH]cn1)NC(=O)[C@@H](Cc1ccccc1)NC(=O)[C@@H](NC(=O)[C@H](CC(C)C)NC(=O)[C@H](CC(=O)O)NC(=O)[C@H](CC(C)C)NC(=O)[C@H](CO)NC(C)=O)[C@@H](C)O)C(=O)N[C@@H](C)C(=O)N[C@@H](CCCCN)C(=O)N[C@@H](C)C(=O)N[C@@H](CCC(=O)O)C(=O)N[C@@H](CCC(N)=O)C(=O)N[C@@H](CCC(=O)O)C(=O)N[C@@H](C)C(=O)N[C@@H](CCC(=O)O)C(=O)N[C@H]1CCC(=O)NCCCC[C@@H](C(=O)N[C@@H](CC(N)=O)C(=O)N[C@@H](CCCNC(=N)N)C(=O)N[C@@H](CC(C)C)C(=O)N[C@@H](CC(C)C)C(=O)N[C@@H](CC(C)C)C(=O)N[C@@H](CCC(=O)O)C(=O)N[C@@H](CCC(=O)O)C(=O)N[C@@H](C)C(N)=O)NC(=O)[C@H](C)NC(=O)[C@H](C)NC1=O [Example 16 A Ala^32 cyclic analog] (Ac-SLDLT[dF]HLLRE[Nle]LE[Nle]AKAEQEAEEAAKNRLLLEEA-NH2; lactam 24-27),"in vitro biopotency, comparison in words",,biopotency greater than the Standard peptide
CCCC[C@H](NC(=O)[C@H](CCC(=O)O)NC(=O)[C@H](CC(C)C)NC(=O)[C@H](CCCC)NC(=O)[C@H](CCC(=O)O)NC(=O)[C@H](CCCNC(=N)N)NC(=O)[C@H](CC(C)C)NC(=O)[C@H](CC(C)C)NC(=O)[C@H](Cc1c[nH]cn1)NC(=O)[C@@H](Cc1ccccc1)NC(=O)[C@@H](NC(=O)[C@H](CC(C)C)NC(=O)[C@H](CC(=O)O)NC(=O)[C@H](CC(C)C)NC(=O)[C@H](CO)NC(C)=O)[C@@H](C)O)C(=O)N[C@@H](C)C(=O)N[C@@H](CCCCN)C(=O)N[C@@H](C)C(=O)N[C@@H](CCC(=O)O)C(=O)N[C@@H](CCC(N)=O)C(=O)N[C@@H](CCC(=O)O)C(=O)N[C@@H](C)C(=O)N[C@@H](CCC(=O)O)C(=O)N[C@H]1CCC(=O)NCCCC[C@@H](C(=O)N[C@@H](CC(N)=O)C(=O)N[C@@H](CCCNC(=N)N)C(=O)N[C@@H](CC(C)C)C(=O)N[C@@H](CC(C)C)C(=O)N[C@@H](CC(C)C)C(=O)N[C@@H](CCC(=O)O)C(=O)N[C@@H](CCC(=O)O)C(=O)N[C@@H](C)C(N)=O)NC(=O)[C@@H](Cc2c[nH]cn2)NC(=O)[C@H](C)NC1=O [Example 16 A D-His^32 cyclic analog] (Ac-SLDLT[dF]HLLRE[Nle]LE[Nle]AKAEQEAEEA[dH]KNRLLLEEA-NH2; lactam 24-27),"in vitro biopotency, comparison in words",,biopotency greater than the Standard peptide
CCCC[C@H](NC(=O)[C@H](CCCCN)NC(=O)[C@H](CCCNC(=N)N)NC(=O)[C@H](CC(C)C)NC(=O)[C@H](CC(C)C)NC(=O)[C@H](CCC(=O)O)NC(=O)[C@@H](CC(C)C)NC(=O)[C@H](CO)NC(=O)[C@H](CC(C)C)NC(=O)[C@H](CC(=O)O)NC(=O)[C@@H](NC(=O)[C@H](CO)NC(C)=O)[C@@H](C)CC)C(=O)N[C@H](C(=O)N[C@@H](CCC(=O)O)C(=O)N[C@H](C(=O)N[C@@H](CCC(=O)O)C(=O)N[C@@H](CCCCN)C(=O)N[C@@H](CCC(N)=O)C(=O)N[C@@H](CCC(=O)O)C(=O)N[C@@H](CCCCN)C(=O)N[C@@H](CCC(=O)O)C(=O)N[C@@H](CCCCN)C(=O)N[C@@H](CCC(N)=O)C(=O)N[C@H]1CCC(=O)NCCCC[C@@H](C(=O)N[C@@H](CC(N)=O)C(=O)N[C@@H](CCCNC(=N)N)C(=O)N[C@@H](CC(C)C)C(=O)N[C@@H](CC(C)C)C(=O)N[C@@H](CC(C)C)C(=O)N[C@@H](CC(=O)O)C(=O)N[C@H](C(=O)N[C@H](C(N)=O)[C@@H](C)CC)[C@@H](C)O)NC(=O)[C@@H](C)NC(=O)[C@H](C)NC1=O)[C@@H](C)CC)[C@@H](C)CC [Example 16 C D-Ala^31 analog] (Ac-SIDLS[dL]ELLRK[Nle]IEIEKQEKEKQEA[dA]KNRLLLDTI-NH2; lactam 24-27),"in vitro biopotency, comparison in words",,shows increased biopotency
